Results: the NIST ThermoML archive (doi:10.1021/je0503204)

Conditions: Liquid; for speed of sound: Pulse-echo method

CCCCCCCl [1-chlorohexane]
Conditions | mass density, 393.15 K [kg/m3] | mass density, 413.15 K [kg/m3] | speed of sound, 393.15 K [m/s] | speed of sound, 413.15 K [m/s]
100 kPa | – | 759.1 | – | 784
5000 kPa | – | 769.6 | – | 829.4
9910 kPa | – | 777.6 | – | 867.7
19720 kPa | – | 793.3 | – | 938.1
29530 kPa | – | 806.8 | – | 1001.1
39340 kPa | – | 818.6 | 1105.2 | 1057.7
49150 kPa | 843 | 829.2 | 1154.2 | 1109
58960 kPa | 851.8 | 838.7 | 1199.4 | 1155.8
68770 kPa | 859.8 | 847.4 | 1241.4 | 1198.9
78580 kPa | 867.2 | 855.3 | 1280.8 | 1239.1
88390 kPa | 874.1 | 862.7 | 1318 | 1276.9
98200 kPa | 880.6 | 869.5 | 1353.3 | 1312.8
108000 kPa | 886.6 | 875.8 | 1387.2 | 1347.4
117800 kPa | 892.3 | 881.8 | 1419.7 | 1380.6
127600 kPa | 897.6 | 887.4 | 1451.2 | 1413
137400 kPa | 902.7 | 892.7 | 1481.6 | 1444.5
147200 kPa | 907.5 | 897.8 | 1511.1 | 1475.2
157100 kPa | 912.1 | 902.5 | 1539.5 | 1504.9
166900 kPa | 916.4 | 907.1 | 1566.9 | 1533.7
176700 kPa | 920.6 | 911.4 | 1592.8 | 1560.9
186500 kPa | 924.6 | 915.6 | 1617.2 | 1586.4
196300 kPa | 928.4 | 919.5 | 1639.7 | 1609.7
